According to patent US10912780B2, “Heterocyclic compounds useful as anti-bacterial agents and method for production thereof” (Bugworks Research, Inc., priority 2017, dated 2021):
≈ marks a conversion by molar mass, not a printed value. Where “and” joins values, the source holds several entries; their conditions need not be identical. Equal values may be shown once.

Assays:
[1] = tested on: Enterococcus faecalis ATCC 29212; assay: Minimum Inhibitory Concentration (MIC) in LB media; assay type: cell-based; settings: Enterococcus faecalis, ATCC29212, read-out: Minimum Inhibitory Concentration E. faecalis ATCC 29212
Source text: (§1) The compounds of Formula (I) are of interest due to their potent antibacterial effects. The ability of the invention compounds disclosed herein to achieve an antibacterial effect may be evaluated with regard to their ability to inhibit the growth of bacterial species like Escherichia coli ATCC 25922, Staphylococcus aureus ATCC 29213, Klebsiella pneumoniae ATCC 13883, Acinetobacter baumannii ATCC 19606, Pseudomonas aeruginosa ATCC 27853, Enterococcus faecalis ATCC 29212 and Enterococcus faecalis ATCC 29212 using an assay based on the following Minimum Inhibitory Concentration (MIC) protocol:
(§2) The medium sterility is checked by incubating at 37° C. for a period of 48 h.
(§3) Bacterial cultures that are stored as glycerol stocks at −80° C. are sub cultured on LB agar plates to obtain isolated colonies. A single colony of each strain is cultured in LB broth. The cultures are incubated at 37 C, 200 rpm till they reach an optical density (OD at 600 nm) of 0.8 to 1. […] Test compounds are dissolved in dimethyl sulfoxide (DMSO) to a stock concentration of 4 mg/ml. A twofold dilution series of this DMSO stock is prepared in a 96 well V bottom microtitre plate from rows A to H. A 3 μL volume of these dilutions are transferred to a 96-well flat bottom microtitre assay plate. Controls to monitor the effects of DMSO and media sterility are included. Each well is inoculated with 150 μL of the above diluted culture. The plates are incubated at 37° C. overnight in a humidified incubator. The following morning, the plates are read using a Spectrophotometer at 600 nm wavelength. […] The antibacterial activity (MIC) determined against representative Gram positive (S. aureus, E. faecalis) and Gram negative (E.coli, -P. aeruginosa and A. baumannii) pathogen were reported Table 1.

[2] = tested on: Escherichia coli ATCC 25922; assay: Minimum Inhibitory Concentration (MIC) in LB media; assay type: cell-based; settings: Escherichia coli, ATCC25922, read-out: Minimum Inhibitory Concentration E. coli ATCC 25922
Source text: as §1, §2, §3

[3] = tested on: Klebsiella pneumoniae ATCC 13883; assay: Minimum Inhibitory Concentration (MIC) in LB media; assay type: cell-based; settings: Klebsiella pneumoniae, ATCC13883, read-out: Minimum Inhibitory Concentration K. pneumoniae ATCC 13883
Source text: as §1, §2, §3

[4] = tested on: Pseudomonas aeruginosa ATCC 27853; assay: Minimum Inhibitory Concentration (MIC) in LB media; assay type: cell-based; settings: Pseudomonas aeruginosa, ATCC27853, read-out: Minimum Inhibitory Concentration P. aeruginosa ATCC 27853
Source text: as §1, §2, §3

[5] = tested on: Staphylococcus aureus ATCC 29213; assay: Minimum Inhibitory Concentration (MIC) in LB media; assay type: cell-based; settings: Staphylococcus aureus, ATCC29213, read-out: Minimum Inhibitory Concentration S. aureus ATCC 29213
Source text: as §1, §2, §3

[6] = tested on: Acinetobacter baumannii ATCC 19606; assay: Minimum Inhibitory Concentration (MIC) in LB media; assay type: cell-based; settings: Acinetobacter baumannii, ATCC19606;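 also: twofold compound dilutions from DMSO stocks in LB broth microplates, overnight incubation at 37 °C, growth read by absorbance at 600 nm, with DMSO and sterility controls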
Protocol: Bacterial cultures that are stored as glycerol stocks at −80° C. are sub cultured on LB agar plates to obtain isolated colonies. A single colony of each strain is cultured in LB broth. […] Test compounds are dissolved in dimethyl sulfoxide (DMSO) to a stock concentration of 4 mg/ml. A twofold dilution series of this DMSO stock is prepared in a 96 well V bottom microtitre plate from rows A to H. A 3 μL volume of these dilutions are transferred to a 96-well flat bottom microtitre assay plate. Controls to monitor the effects of DMSO and media sterility are included. Each well is inoculated with 150 μL of the above diluted culture. The plates are incubated at 37° C. overnight in a humidified incubator. The following morning, the plates are read using a Spectrophotometer at 600 nm wavelength.

E. coli DNA gyrase = E. coli DNA gyrase (Escherichia coli, UniProt P0AES4+P0AES6); assay: biochemical; settings: supercoiling assay
E. coli topoisomerase IV = E. coli topoisomerase IV (Escherichia coli, UniProt P0AFI2+P20083); assay: biochemical; settings: decatenation assay; read-out: E. coli Topo IV IC50
[7] = molecular target: T1, human ether a go-go related gene (hERG) K+ channel (Homo sapiens, UniProt Q12809); assay: hERG inhibition assay, QPatch HTX automated electrophysiology; assay type: cell-based; settings: CHO cell line stably expressing hERG, whole-cell patch clamp, maximum test concentration 300 μM
T1 construct: Chinese Hamster Ovary cell line stably expressing the full-length hERG potassium channel; expressed in transfected cells
Protocol: The compounds were tested for inhibition of the human ether a go-go related gene (hERG) K+ channel using QPatch HTX automated electrophysiology.
Compounds were solubilised to 100 mM in DMSO before dilution in HBPS to 300 μM.
Electrophysiological recordings were made from a Chinese Hamster Ovary cell line stably expressing the full-length hERG potassium channel. Single cell ionic currents were measured in whole-cell patch clamp configuration at room temperature (21-23° C.) using the QPatch HTX platform (Sophion). Intracellular solution contained (mM): 120 KF, 20 KCl, 10 EGTA, 10 HEPES and was buffered to pH 7.3. […] Cells were clamped at a holding potential of −80 mV. […] This sweep was repeated 10 times at 10 s intervals. hERG currents were measured from the tail step and referenced to the holding current. Compounds were then incubated for 2 minutes prior to a second measurement of ion channel current using an identical pulse train.

[8] = tested on: K. pneumoniae [ATCC13883]; assay: Neutropenic thigh infection model in rat; assay type: in vivo; settings: 10 mg/kg, i.v. bolus, neutropenic rat

T1 sequence (Q12809 whole entry): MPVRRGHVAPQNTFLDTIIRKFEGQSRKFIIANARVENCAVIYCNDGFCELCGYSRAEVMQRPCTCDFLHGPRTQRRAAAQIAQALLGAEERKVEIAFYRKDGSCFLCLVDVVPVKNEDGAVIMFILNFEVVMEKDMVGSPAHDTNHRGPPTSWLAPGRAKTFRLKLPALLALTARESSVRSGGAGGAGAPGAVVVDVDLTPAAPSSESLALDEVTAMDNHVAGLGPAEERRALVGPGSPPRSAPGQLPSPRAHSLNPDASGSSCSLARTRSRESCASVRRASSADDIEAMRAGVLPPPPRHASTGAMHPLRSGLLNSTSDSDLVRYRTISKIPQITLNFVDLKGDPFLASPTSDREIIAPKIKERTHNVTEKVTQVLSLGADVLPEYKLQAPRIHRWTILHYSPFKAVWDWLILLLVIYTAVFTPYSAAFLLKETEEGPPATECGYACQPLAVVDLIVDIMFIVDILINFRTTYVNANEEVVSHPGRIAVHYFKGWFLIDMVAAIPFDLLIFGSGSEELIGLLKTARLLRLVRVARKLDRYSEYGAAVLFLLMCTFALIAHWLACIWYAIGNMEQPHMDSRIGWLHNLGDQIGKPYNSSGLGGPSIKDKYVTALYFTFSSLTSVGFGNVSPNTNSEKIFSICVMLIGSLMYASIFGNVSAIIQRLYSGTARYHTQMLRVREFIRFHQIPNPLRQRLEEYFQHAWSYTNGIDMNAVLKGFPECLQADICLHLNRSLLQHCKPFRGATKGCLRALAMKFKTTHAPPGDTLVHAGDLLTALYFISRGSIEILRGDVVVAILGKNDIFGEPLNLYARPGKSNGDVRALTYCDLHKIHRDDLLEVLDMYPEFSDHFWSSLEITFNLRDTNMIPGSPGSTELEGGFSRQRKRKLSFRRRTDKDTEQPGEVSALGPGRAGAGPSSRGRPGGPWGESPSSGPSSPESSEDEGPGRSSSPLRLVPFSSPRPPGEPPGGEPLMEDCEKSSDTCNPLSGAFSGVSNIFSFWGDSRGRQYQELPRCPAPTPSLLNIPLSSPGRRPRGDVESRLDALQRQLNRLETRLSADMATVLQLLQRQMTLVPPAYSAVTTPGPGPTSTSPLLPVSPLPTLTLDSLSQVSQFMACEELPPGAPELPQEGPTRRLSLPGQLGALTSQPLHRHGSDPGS
Sequence of E. coli DNA gyrase (P0AES4 whole entry, one chain of several): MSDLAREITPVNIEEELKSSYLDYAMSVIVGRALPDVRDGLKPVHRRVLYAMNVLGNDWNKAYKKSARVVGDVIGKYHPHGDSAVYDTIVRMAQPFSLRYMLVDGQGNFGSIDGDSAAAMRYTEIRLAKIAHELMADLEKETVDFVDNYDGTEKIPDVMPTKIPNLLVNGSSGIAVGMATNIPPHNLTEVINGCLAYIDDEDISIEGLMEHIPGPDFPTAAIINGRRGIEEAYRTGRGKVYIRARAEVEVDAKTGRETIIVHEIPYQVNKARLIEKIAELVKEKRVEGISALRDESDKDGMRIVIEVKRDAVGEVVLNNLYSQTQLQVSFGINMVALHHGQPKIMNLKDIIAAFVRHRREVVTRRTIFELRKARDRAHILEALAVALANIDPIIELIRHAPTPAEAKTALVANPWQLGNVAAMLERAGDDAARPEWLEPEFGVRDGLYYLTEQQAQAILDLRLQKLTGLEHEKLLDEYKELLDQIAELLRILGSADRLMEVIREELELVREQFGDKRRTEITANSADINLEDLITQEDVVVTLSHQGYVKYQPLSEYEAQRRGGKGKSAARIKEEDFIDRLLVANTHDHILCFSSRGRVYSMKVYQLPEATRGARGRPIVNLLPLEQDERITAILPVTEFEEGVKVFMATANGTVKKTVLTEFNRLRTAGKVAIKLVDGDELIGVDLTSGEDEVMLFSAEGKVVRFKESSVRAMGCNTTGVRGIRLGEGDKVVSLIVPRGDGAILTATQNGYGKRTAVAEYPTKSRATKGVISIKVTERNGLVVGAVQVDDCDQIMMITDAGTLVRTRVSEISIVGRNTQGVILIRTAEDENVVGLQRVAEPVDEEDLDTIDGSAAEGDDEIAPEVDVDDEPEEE
Sequence of E. coli topoisomerase IV (P20083 whole entry): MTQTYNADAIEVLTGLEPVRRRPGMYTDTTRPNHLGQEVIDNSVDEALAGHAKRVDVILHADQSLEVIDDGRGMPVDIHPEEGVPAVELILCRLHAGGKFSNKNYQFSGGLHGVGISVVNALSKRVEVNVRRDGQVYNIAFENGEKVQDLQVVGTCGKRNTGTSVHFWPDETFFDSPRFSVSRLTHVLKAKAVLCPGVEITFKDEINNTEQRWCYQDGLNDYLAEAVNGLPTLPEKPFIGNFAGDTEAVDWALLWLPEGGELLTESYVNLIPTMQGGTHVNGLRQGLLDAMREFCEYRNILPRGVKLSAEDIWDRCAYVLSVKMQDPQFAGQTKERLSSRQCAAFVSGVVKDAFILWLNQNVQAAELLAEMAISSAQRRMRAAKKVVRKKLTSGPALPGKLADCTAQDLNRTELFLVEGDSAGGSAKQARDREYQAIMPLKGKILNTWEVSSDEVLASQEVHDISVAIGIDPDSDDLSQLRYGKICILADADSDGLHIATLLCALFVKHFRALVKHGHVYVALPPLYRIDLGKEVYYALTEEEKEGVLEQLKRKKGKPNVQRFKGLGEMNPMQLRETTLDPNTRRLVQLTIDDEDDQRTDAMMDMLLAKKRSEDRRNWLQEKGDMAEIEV
Sequence of E. coli topoisomerase IV (P0AFI2 whole entry): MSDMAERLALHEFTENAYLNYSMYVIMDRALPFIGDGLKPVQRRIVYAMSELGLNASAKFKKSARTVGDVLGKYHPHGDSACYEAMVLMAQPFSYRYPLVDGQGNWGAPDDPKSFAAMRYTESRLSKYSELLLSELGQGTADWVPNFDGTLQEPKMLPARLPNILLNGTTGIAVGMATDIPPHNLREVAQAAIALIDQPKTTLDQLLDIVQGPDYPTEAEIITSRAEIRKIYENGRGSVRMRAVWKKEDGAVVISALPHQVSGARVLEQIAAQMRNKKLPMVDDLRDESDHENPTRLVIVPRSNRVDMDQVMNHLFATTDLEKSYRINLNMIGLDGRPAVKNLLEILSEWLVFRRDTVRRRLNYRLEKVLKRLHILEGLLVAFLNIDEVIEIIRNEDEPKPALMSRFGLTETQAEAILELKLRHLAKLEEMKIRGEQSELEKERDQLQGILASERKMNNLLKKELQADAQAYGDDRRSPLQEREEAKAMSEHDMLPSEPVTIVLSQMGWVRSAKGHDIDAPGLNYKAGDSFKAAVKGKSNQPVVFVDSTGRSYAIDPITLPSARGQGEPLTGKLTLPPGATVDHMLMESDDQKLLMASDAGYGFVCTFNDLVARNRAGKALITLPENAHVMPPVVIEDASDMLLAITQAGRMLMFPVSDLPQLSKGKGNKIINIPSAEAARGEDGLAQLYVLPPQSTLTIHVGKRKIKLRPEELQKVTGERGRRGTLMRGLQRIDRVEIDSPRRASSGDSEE

SMILES	MIC [1] [µg/mL]	MIC [2] [µg/mL]	MIC [3] [µg/mL]	MIC [4] [µg/mL]	MIC [5] [µg/mL]	MIC [6] [µg/mL]	IC50 (E. coli DNA gyrase) [nM]	IC50 (E. coli topoisomerase IV) [nM]	IC50 [7] [nM]	MEAN ± SD (Log 10 CFU/g thigh) ([8]; 10 hr post infection)	Mean Log10CFU/g thigh reduction (wrt 2 h PI control: 4.72 Log10CFU/g thigh) ([8]; 10 hr post infection) [Log10CFU/g thigh]	Log 10 CFU/g thigh ([8]; individual animals, thigh harvested 10 hr post infection)
Cn1c(=O)ccc2ccc(F)c(C[C@H](O)CNC[C@H]3CN(c4ccc5c(n4)NC(=O)CO5)C(=O)O3)c21 (single isomer, unassigned) [Example 18]	0.5 (≈ 1.01 µM)	0.125 (≈ 0.251 µM)	0.125 (≈ 0.251 µM)	1 (≈ 2.01 µM)	0.125 (≈ 0.251 µM)	0.5 (≈ 1.01 µM)	13	24	237000	–	–	–
Cn1c(=O)ccc2ccc(F)c(CCNCC[C@H]3CN(c4cnc5c(n4)NC(=O)CO5)C(=O)O3)c21 (single isomer, unassigned) [Example 24]	0.125 (≈ 0.259 µM)	0.06 (≈ 0.124 µM)	0.125 (≈ 0.259 µM)	0.25 (≈ 0.518 µM)	0.125 (≈ 0.259 µM)	0.5 (≈ 1.04 µM)	25	123	> 300000	–	–	–
Cn1c(=O)ccc2ccc(F)c(CCNCC[C@@H]3CN(c4cnc5c(n4)NC(=O)CO5)C(=O)O3)c21 (single isomer, unassigned) [Example 25]	0.5 (≈ 1.04 µM)	0.06 (≈ 0.124 µM)	0.25 (≈ 0.518 µM)	0.25 (≈ 0.518 µM)	0.06 (≈ 0.124 µM)	0.5 (≈ 1.04 µM)	17	21	101000	–	–	–
O=C(O)c1cn(C2CC2)c2cc(N3CCNCC3)c(F)cc2c1=O [Ciprofloxacin, reference compound]	0.4 (≈ 1.21 µM)	0.012 (≈ 0.0362 µM)	0.05 (≈ 0.151 µM)	0.1 (≈ 0.302 µM)	0.4 (≈ 1.21 µM)	–	–	–	–	3.28 ± 0.19	1.44	3.49 Log 10 CFU/g thigh and 3.11 Log 10 CFU/g thigh and 3.25 Log 10 CFU/g thigh
CN1C(=O)CCc2ccc(F)c(CCNC[C@@H]3CN(c4ccc5c(n4)NC(=O)CO5)C(=O)O3)c21 [Example 3, (R)-6-(5-(((2-(7-fluoro-1-methyl-2-oxo-1,2,3,4-tetrahydroquinolin-8-yl)ethyl)amino)methyl)-2-oxooxazolidin-3-yl)-2H-pyrido[3,2-b][1,4]oxazin-3(4H)-one]	0.25 (≈ 0.533 µM)	0.5 (≈ 1.07 µM)	2 (≈ 4.26 µM)	16 (≈ 34.1 µM)	0.5 (≈ 1.07 µM)	1 (≈ 2.13 µM)	–	–	12000	–	–	–
Cn1c(=O)cnc2ccc(F)c(CCNC[C@@H]3CN(c4ccc5c(n4)NC(=O)CO5)C(=O)O3)c21 [Example 5, (R)-6-(5-(((2-(6-fluoro-4-methyl-3-oxo-3,4-dihydroquinoxalin-5-yl)ethyl)amino)methyl)-2-oxooxazolidin-3-yl)-2H-pyrido[3,2-b][1,4]oxazin-3(4H)-one]	0.25 (≈ 0.534 µM)	0.06 (≈ 0.128 µM)	0.125 (≈ 0.267 µM)	1 (≈ 2.13 µM)	0.015 (≈ 0.032 µM)	0.03 (≈ 0.064 µM)	–	–	14000	–	–	–
Cn1c(=O)ccc2ccc(F)c(CCNC[C@H]3CN(c4ccc5c(n4)NC(=O)CO5)C(=O)O3)c21 [Example 8, (S)-6-(5-(((2-(7-fluoro-1-methyl-2-oxo-1,2-dihydroquinolin-8-yl)ethyl)amino)methyl)-2-oxooxazolidin-3-yl)-2H-pyrido[3,2-b][1,4]oxazin-3(4H)-one]	0.06 (≈ 0.128 µM)	0.03 (≈ 0.0642 µM)	0.03 (≈ 0.0642 µM)	0.25 (≈ 0.535 µM)	≤ 0.015	≤ 0.015	–	–	17000	–	–	–
